The target of one assay is HiBiT tagged Wee1 (Homo sapiens, UniProt P30291). Description: Wee1 protein degradation assay (HiBiT assay). Format: cell-based. Particulars: for Dmax: maximum percentage of Wee1 degradation, read-out: HiBiT Wee1: Dmax.
For a further assay, the system named is NCI-H1048 cells. The experiment in a line: NCI-H1048 cell proliferation assay (CTG assay). Format: cell-based. Particulars: Homo sapiens, 120 hours, read-out: CTG cellular assay_H1048: IC50. Put shortly: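 NCI-H1048 small cell lung cancer cells (RPMI-1640, 10% FBS) were exposed to 10-point half-log compound dilutions from 10 μM to 0.316 nM for 120 h at 37° C., 5% CO2. Viability was read by CellTiter-Glo luminescence and normalized to DMSO as percent of control. EC50 and DC50 were fitted with a four-parameter logistic model.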

Where [1] appears, read: engineered HT-1080 cells, 20 hours.

Drawing on patent US20250049798A1, “WEE1 PROTEIN KINASE DEGRADATION AGENT AND USE THEREOF” (HANGZHOU GLUBIO PHARMACEUTICAL CO. LTD., priority 2021, published 2025), this text covers DC50, Dmax and IC50 for 13 molecules.

Like-named read-outs stand apart in the source and are kept apart here.

Chain of HiBiT tagged Wee1 (P30291 whole entry): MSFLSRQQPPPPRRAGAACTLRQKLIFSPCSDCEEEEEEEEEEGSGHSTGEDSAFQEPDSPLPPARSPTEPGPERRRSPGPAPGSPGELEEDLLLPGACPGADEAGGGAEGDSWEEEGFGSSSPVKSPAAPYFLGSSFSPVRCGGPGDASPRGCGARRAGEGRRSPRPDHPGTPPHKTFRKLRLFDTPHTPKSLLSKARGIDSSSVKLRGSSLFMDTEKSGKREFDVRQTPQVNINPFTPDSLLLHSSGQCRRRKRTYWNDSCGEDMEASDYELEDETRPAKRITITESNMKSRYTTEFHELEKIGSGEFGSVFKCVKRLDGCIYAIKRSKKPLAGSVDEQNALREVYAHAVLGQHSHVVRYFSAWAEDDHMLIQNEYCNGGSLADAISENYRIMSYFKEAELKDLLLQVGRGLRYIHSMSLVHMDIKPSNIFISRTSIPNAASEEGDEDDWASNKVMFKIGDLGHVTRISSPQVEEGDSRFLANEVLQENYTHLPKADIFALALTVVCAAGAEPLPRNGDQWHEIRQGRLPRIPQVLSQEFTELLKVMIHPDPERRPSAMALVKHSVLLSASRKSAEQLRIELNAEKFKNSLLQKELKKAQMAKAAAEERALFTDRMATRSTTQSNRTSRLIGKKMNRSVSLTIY

Regarding `C=CCn1c(=O)c2cnc(Nc3ccc(N4CCN(CC5CCN(c6ccc(NC7CCC(=O)NC7=O)cc6F)CC5)[C@H](C)C4)cc3)nc2n1-c1ccc2c(n1)[C@@](O)(CC)CC2` (stereo partly drawn) [Compound 163], at HiBiT tagged Wee1 (setting [1]), the half-maximal degradation concentration (DC50) (commonly the concentration giving 50% degradation) is less than 100 nM and the greatest degradation seen (Dmax) – broadly, the largest share of the target that was removed – was greater than 75%. Besides, the IC50 – broadly, the concentration at which inhibition is half-maximal – in the assay on NCI-H1048 cells is no more than 25 nM.
For `C=CCn1c(=O)c2cnc(Nc3ccc(C4CCN(CC5CCN(c6ccc(NC7CCC(=O)NC7=O)cc6F)CC5)CC4)cc3)nc2n1-c1ccc2c(n1)[C@@](O)(CC)CC2` (stereo partly drawn) [Compound 109], on HiBiT tagged Wee1 (setting [1]), the 50% degradation concentration (DC50) is less than 100 nM and the greatest degradation seen (Dmax) fell in the range of 50 to 75%. In addition, the IC50 in the assay on NCI-H1048 cells was no more than 25 nM.
Consider `C=CCn1c(=O)c2cnc(Nc3ccc(N4CCN(CC5CCN(c6ccc(NC7CCC(=O)NC7=O)cc6Cl)CC5)CC4)cc3)nc2n1-c1ccc2c(n1)[C@@](O)(CC)CC2` (stereo partly drawn) [Compound 176], for which, at HiBiT tagged Wee1 (setting [1]), the DC50 was less than 100 nM and the Dmax was greater than 75%. For the same molecule, in the assay on NCI-H1048 cells, the IC50 was no more than 25 nM.
Turning to `CN1CN(c2c(Cl)cccc2Cl)C(=O)c2cnc(Nc3ccc(N4CCN(CCCNc5cccc6c5C(=O)N(C5CCC(=O)NC5=O)C6=O)CC4)cc3)nc21` (stereo not drawn) [Compound 17], the Dmax on HiBiT tagged Wee1 (HT-1080, […]) was less than 50%. In addition, the 50% degradation concentration (DC50) on HiBiT tagged Wee1 (setting [1]) is greater than 1000 nM. Also, the IC50 with NCI-H1048 cells was greater than 100 nM.
Regarding `C=CCn1c(=O)c2cnc(Nc3ccc(N4CCN(CC5CCN(c6ccc7c(N8CCC(=O)NC8=O)nn(C)c7c6)CC5)CC4)cc3)nc2n1-c1ccc2c(n1)[C@](C)(O)CC2` [Compound 115], at HiBiT tagged Wee1 (setting [1]), the half-maximal degradation concentration (DC50) was less than 100 nM and the Dmax is greater than 75%. For the same molecule, in the assay on NCI-H1048 cells, the IC50 is no more than 25 nM.
For the molecule `C=CCn1c(=O)c2cnc(Nc3ccc(N4CCC(CN5CCN(c6ccc(NC7CCC(=O)NC7=O)cc6F)CC5)CC4)cc3)nc2n1-c1ccc2c(n1)[C@@](O)(CC)CC2` (stereo partly drawn) [Compound 119], on HiBiT tagged Wee1 (setting [1]), the DC50 is less than 100 nM and the Dmax is greater than 75%. The 50% inhibitory concentration (IC50) in the assay with NCI-H1048 cells was no more than 25 nM.
On to `C=CCn1c(=O)c2cnc(Nc3ccc(N4CCC(CN5CCN(c6ccc(NC7CCC(=O)NC7=O)cc6)CC5)CC4)cc3)nc2n1-c1cccc(C(C)(C)O)n1` (stereo not drawn) [Compound 92], for which, on HiBiT tagged Wee1 (setting [1]), the half-maximal degradation concentration (DC50) was less than 100 nM and the maximal degradation (Dmax) is greater than 75%. Further, the IC50 in the assay with NCI-H1048 cells is no more than 25 nM.
The corresponding values for `C=CCn1c(=O)c2cnc(Nc3ccc(N4CCC(N5CCC(c6ccc(NC7CCC(=O)NC7=O)cc6F)CC5)CC4)cc3)nc2n1-c1cccc(C(C)(C)O)n1` (stereo not drawn) [Compound 82] are less than 100 nM, greater than 75% and no more than 25 nM.
`C=CCn1c(=O)c2cnc(Nc3ccc(N4CCN(CC5CCN(c6ncc(NC7CCC(=O)NC7=O)cc6F)CC5)[C@@H](C)C4)cc3)nc2n1-c1ccc2c(n1)[C@@](O)(CC)CC2` (stereo partly drawn) [Compound 192]: on HiBiT tagged Wee1 (setting [1]), the DC50 is less than 100 nM and the greatest degradation seen (Dmax) is greater than 75%. The half-maximal inhibitory concentration (IC50) in the assay with NCI-H1048 cells was no more than 25 nM.
`C=CCn1c(=O)c2cnc(Nc3ccc(N4CCN(CC5CCN(c6cc7c(cc6F)c(N6CCC(=O)NC6=O)nn7C)CC5)CC4)nc3)nc2n1-c1ccc2c(n1)[C@](C)(O)CC2` [Compound 197]: on HiBiT tagged Wee1 (setting [1]), the DC50 was less than 100 nM and the Dmax was greater than 75%. For the same molecule, the concentration for half-maximal inhibition (IC50) in the assay with NCI-H1048 cells was no more than 25 nM.
In the case of `C=CCn1c(=O)c2cnc(Nc3ccc(N4CCN(CC5CN(c6ccc7c(c6)C(=O)N(C6CCC(=O)NC6=O)C7=O)C5)CC4)cc3)nc2n1-c1cccc(C(C)(C)O)n1` (stereo not drawn) [Compound 10], at HiBiT tagged Wee1 (setting [1]), the DC50 was less than 100 nM and the greatest degradation seen (Dmax) is 50 to 75%. The IC50 in the assay with NCI-H1048 cells lay in the range of 25 to 100 nM.
For `C=CCn1c(=O)c2cnc(Nc3ccc(N4CCC(CN5CCC(c6ccc(NC7CCC(=O)NC7=O)cc6C(F)(F)F)CC5)CC4)cc3)nc2n1-c1cccc(C(C)(C)O)n1` (stereo not drawn) [Compound 80], at HiBiT tagged Wee1 (setting [1]), the DC50 is less than 100 nM and the Dmax is greater than 75%. Moreover, in the assay on NCI-H1048 cells, the 50% inhibitory concentration (IC50) is no more than 25 nM.
As to `Cc1cc(Nc2ncc3c(n2)N(C)CN(c2c(Cl)cccc2Cl)C3=O)ccc1C1CCN(CC2CN(c3ccc4c(c3)C(=O)N(C3CCC(=O)NC3=O)C4=O)C2)CC1` (stereo not drawn) [Compound 18], at HiBiT tagged Wee1 (setting [1]), the DC50 is greater than 1000 nM and the maximal degradation (Dmax) is less than 50%. For the same molecule, in the assay with NCI-H1048 cells, the 50% inhibitory concentration (IC50) is greater than 100 nM.
